In patent US8530493B2, “Indolopyridines as Eg5 kinesin modulators” (4SC AG, priority 2006, dated 2013):

system: RKO p21 uninduced (proliferating) colon adenocarcinoma cells; assay: Alamar Blue cell viability assay, RKO p21 uninduced (proliferating); assay type: cell-based; details: Homo sapiens, Table B3, anti-proliferative/cytotoxic activity, 72 hours, read-out: −log EC50 RKO p21 uninduced (proliferating) (converted)
Description: The anti-proliferative/cytotoxic activity of the compounds described herein can be tested on subclones of RKO human colon adenocarcinoma cells (Schmidt et al., Oncogene 19, 2423-2429; 2000) using the Alamar Blue cell viability assay (described in O'Brien et al. Eur J Biochem 267, 5421-5426, 2000). The compounds are dissolved as 10 mM solutions in DMSO and subsequently diluted in semi-logarithmic steps. DMSO dilutions are further diluted 1:100 into Dulbecco's modified Eagle's medium (DMEM) containing 10% fetal calf serum to a final concentration twice as much as the final concentration in the test. RKO subclones are seeded into 96 well flat bottom plates at a density of 4000 cells per well in a volume of 50 μl per well. 24 hours after seeding the 50 μl each of the compound dilutions in DMEM medium are added into each well of the 96 well plate. Each compound dilution is tested as triplicates. Wells containing untreated control cells are filled with 50 μl DMEM medium containing 1% DMSO. The cells are then incubated with the substances for 72 hours at 37° C. in a humidified atmosphere containing 5% carbon dioxide. To determine the viability of the cells, 10 μl of an Alamar Blue solution (Biosource) are added and the fluorescence is measured at an extinction of 544 nm and an emission of 590 nm. For the calculation of the cell viability the emission value from untreated cells is set as 100% viability and the emission rates of treated cells are set in relation to the values of untreated cells. Viabilities are expressed as % values. The Graphpad Prism program is used for the calculation of EC50 values for anti-proliferative/cytotoxic activity out of the obtained dose-response curves.
To determine the cell cycle specific mode of action, subclones of RKO colon adenocarcinoma cells (RKOp21 or RKOp27 as described by Schmidt et al. in Oncogene 19, 2423-2429; 2000) are seeded into 96 well flat bottom plates at a density of 16000 cells per well in a volume of 50 μl per well in DMEM growth medium with 10% FCS containing 10 μM Ponasterone A. 24 hours after seeding the 50 μl each of the compound dilutions in DMEM medium are added into each well of the 96-well plate. Each compound dilution is tested as triplicates. Wells containing untreated control cells are filled with 50 μl DMEM medium containing 1% DMSO. The cells are then incubated with the substances for 72 hours at 37° C. in a humidified atmosphere containing 5% carbon dioxide. To determine the viability of the cells, 10 μl of an Alamar Blue solution (Biosource) are added and the fluorescence is measured at an extinction of 544 nm and an emission of 590 nm. For the calculation of the cell viability the emission value from untreated cells is set as 100% viability and the emission rates of treated cells are set in relation to the values of untreated cells. Viabilities are expressed as % values. The Graphpad Prism program (GraphPad Software, Inc) is used for the calculation of EC50 values out of the obtained dose-response curves. Viability is compared of proliferating cells grown in the absence of the inducer Ponasterone A, versus viability of cells arrested by the expression of ectopic p27Kip1 induced by Ponasterone A.
Representative values for anti-proliferation/cytotoxicity [measured as −log EC50 (mol/l)] determined in the aforementioned assays follow from the following tables B1, B2 and B3, in which the numbers of the compounds correspond to the numbers of the examples.

Row | SMILES | EC50 [µM]
1 | CCOc1ccc2[nH]c3c(c2c1)C[C@@]1(C)C(=O)N(CCCNC2CC2)C(=O)N1[C@@H]3c1cccc(O)c1 (racemic) [Example 190, (3aSR,10RS)-2-(3-Cyclopropylamino-propyl)-6-ethoxy-10-(3-hydroxy-phenyl)-3a-methyl-3a,4,9,10-tetrahydro-2,9,10a-triaza-cyclopenta[b]fluorene-1,3-dione] | 0.0398 to 0.251
2 | C=CCNCCCN1C(=O)N2[C@H](c3cccc(O)c3)c3[nH]c4ccc(OCC)cc4c3C[C@@]2(C)C1=O (racemic) [Example 191, (3aSR,10RS)-2-(3-Allylamino-propyl)-6-ethoxy-10-(3-hydroxy-phenyl)-3a-methyl-3a,4,9,10-tetrahydro-2,9,10a-triaza-cyclopenta[b]bluorene-1,3-dione] | 0.0398 to 0.251
3 | CCOc1ccc2[nH]c3c(c2c1)C[C@@]1(C)C(=O)N(CCCN(C)CC)C(=O)N1[C@@H]3c1cccc(O)c1 (racemic) [Example 192, (3aSR,10RS)-6-Ethoxy-2-[3-(ethyl-methyl-amino)-propyl]-10-(3-hydroxy-phenyl)-3a-methyl-3a,4,9,10-tetrahydro-2,9,10a-triaza-cyclopenta[b]fluorene-1,3-dione] | 0.0398 to 0.251
4 | CCOc1ccc2[nH]c3c(c2c1)C[C@@]1(C)C(=O)N(CCCN(C)CCO)C(=O)N1[C@@H]3c1cccc(O)c1 (racemic) [Example 193, (3aSR,10RS)-6-Ethoxy-2-{3-[(2-hydrox-ethyl)-methyl-amino]-propyl}-10-(3-hydroxy-phenyl)-3a-methyl-3a,4,9,10-tetrahydro-2,9,10a-triaza-cyclopenta[b]fluorene-1,3-dione] | 0.0398 to 0.251
5 | CCOc1ccc2[nH]c3c(c2c1)C[C@@]1(C)C(=O)N(CCCN(CC)CCO)C(=O)N1[C@@H]3c1cccc(O)c1 (racemic) [Example 194, (3aSR,10RS)-6-Ethoxy-2-{3-[ethyl-(2-hydroxy-ethyl)-amino]-propyl}-10-(3-hydroxy-phenyl)-3a-methyl-3a,4,9,10-tetrahydro-2,9,10a-triaza-cyclopenta[b]fluorene-1,3-dione] | 0.0398 to 0.251
6 | CCOc1ccc2[nH]c3c(c2c1)C[C@@]1(C)C(=O)N(CCCN(CC)CCOC)C(=O)N1[C@@H]3c1cccc(O)c1 (racemic) [Example 195, (3aSR,10RS)-6-Ethoxy-2-{3-[ethyl-(2-methoxy-ethyl)-amino]-propyl}-10-(3-hydroxy-phenyl)-3a-methyl-3a,4,9,10-tetrahydro-2,9,10a-triaza-cyclopenta[b]fluorene-1,3-dione] | 0.0398 to 0.251
7 | C=CCN(C)CCCN1C(=O)N2[C@H](c3cccc(O)c3)c3[nH]c4ccc(OCC)cc4c3C[C@@]2(C)C1=O (racemic) [Example 196, (3aSR,10RS)-2-[3-(Allyl-methyl-amino)-propyl]-6-ethoxy-10-(3-hydroyx-phenyl)-3a-methyl-3a,4,9,10-tetrahydro-2,9,10a-triaza-cyclopenta[b]fluorene-1,3-dione] | 0.0398 to 0.251
8 | CCOc1ccc2[nH]c3c(c2c1)C[C@@]1(C)C(=O)N(CCCN(C)C(C)C)C(=O)N1[C@@H]3c1cccc(O)c1 (racemic) [Example 197, (3aSR,10RS)-6-Ethoxy-10-(3-hydroxy-phenyl)-2-[3-(isopropyl-methyl-amino)-propyl]-3a-methyl-3a,4,9,10-tetrahydro-2,9,10a-triaza-cyclpenta[b]fluorene-1,3-dione] | 0.0398 to 0.251
9 | CCOc1ccc2[nH]c3c(c2c1)C[C@@]1(C)C(=O)N(CCCN2CCC2)C(=O)N1[C@@H]3c1cccc(O)c1 (racemic) [Example 198, (3aSR,10RS)-2-(3-Azetidin-1-yl-propyl)-6-ethoxy-10-(3-hydroxy-phenyl)-3a-methyl-3a,4,9,10-tetrahydro-2,9,10a-triaza-cyclopenta[b]fluorene-1,3-dione] | 0.0398 to 0.251
10 | CC(C)CNCCCN1C(=O)N2[C@H](c3cccc(O)c3)c3[nH]c4ccc(OC(F)F)cc4c3C[C@@]2(C)C1=O (racemic) [Example 199, (3aSR,10RS)-6-(1,1-Difluoro-methoxy)-10-(3-hydroxy-phenyl)-2-(3-isobutylamino-propyl)-3a-methyl-3a,4,9,10-tetrahydro-2,9,10a-triaza-cyclopenta[b]fluorene-1,3-dione] | 0.0398 to 0.251
11 | C[C@@]12Cc3c([nH]c4ccc(OC(F)F)cc34)[C@@H](c3cccc(O)c3)N1C(=O)N(CCCNCC1CC1)C2=O (racemic) [Example 200, (3aSR,10RS)-2-[3-(Cyclopropylmethyl-amino)-propyl]-6-(1,1-difluoro-methoxy)-10-(3-hydroxy-phenyl)-3a-methyl-3a,4,9,10-tetrahydro-2,9,10a-triaza-cyclopenta[b]fluorene-1,3-dione] | 0.0398 to 0.251
12 | C[C@@]12Cc3c([nH]c4ccc(OC(F)F)cc34)[C@@H](c3cccc(O)c3)N1C(=O)N(CCCNCCO)C2=O (racemic) [Example 201, (3aSR,10RS)-6-(1,1-Difluoro-methoxy)-2-[3-(2-hydroxy-ethylamino)-propyl]-10-(3-hydroxy-phenyl)-3a-methyl-3a,4,9,10-tetrahydro-2,2,10a-triaza-cyclopenta[b]fluorene-1,3-dione] | 0.0398 to 0.251
13 | C[C@@]12Cc3c([nH]c4ccc(OC(F)F)cc34)[C@@H](c3cccc(O)c3)N1C(=O)N(CCCNC1CC1)C2=O (racemic) [Example 202, (3aSR,10RS)-2-(3-Cyclopropylamino-propyl)-6-(1,1-difluoro-methoxy)-10-(3-hydroxy-phenyl)-3a-methyl-3a,4,9,10-tetrahydro-2,9,10a-triaza-cyclopenta[b]fluorene-1,3-dione] | 0.0398 to 0.251
14 | CNCCCN1C(=O)N2[C@H](c3cccc(O)c3)c3[nH]c4ccc(OC(F)F)cc4c3C[C@@]2(C)C1=O (racemic) [Example 203, (3aSR,10RS)-6-(1,1-Difluoro-methoxy)-10-(3-hydroxy-phenyl)-3a-methyl-2-(3-methylamino-propyl)-3a,4,9,10-tetrahydro-2,9,10a-triaza-cyclopenta[b]fluorene-1,3-dione] | 0.0398 to 0.251
15 | CCNCCCN1C(=O)N2[C@H](c3cccc(O)c3)c3[nH]c4ccc(OC(F)F)cc4c3C[C@@]2(C)C1=O (racemic) [Example 204, (3aSR,10RS)-6-(1,1-Difluoro-methoxy)-2-(3-ethylamino-propyl)-10-(3-hydroxy-phenyl)-3a-methyl-3a,4,9,10-tetrahydro-2,9,10a-triaza-cyclopenta[b]fluorene-1,3-dione] | 0.0398 to 0.251
16 | COCCNCCCN1C(=O)N2[C@H](c3cccc(O)c3)c3[nH]c4ccc(OC(F)F)cc4c3C[C@@]2(C)C1=O (racemic) [Example 205, (3aSR,10RS)-6-(1,1-Difluoro-methoxy)-10-(3-hydroxy-phenyl)-2-[3-(2-methoxy-ethylamino)-propyl]-3a-methyl-3a,4,9,10-tetrahydro-2,9,10a-triaza-cyclopenta[b]fluorene-1,3-dione] | 0.0398 to 0.251
17 | C=CCNCCCN1C(=O)N2[C@H](c3cccc(O)c3)c3[nH]c4ccc(OC(F)F)cc4c3C[C@@]2(C)C1=O (racemic) [Example 206, (3aSR,10RS)-2-(3-Allylamino-propyl)-6-(1,1-difluoro-methoxy)-10-(3-hydroxy-phenyl)-3a-methyl-3a,4,9,10-tetrahydro-2,9,10a-triaza-cyclopenta[b]fluorene-1,3-dione] | 0.0398 to 0.251
18 | CCOc1ccc2[nH]c3c(c2c1)C[C@@]1(C)C(=O)N(CCCN2CCOCC2)C(=O)N1[C@@H]3c1cccc(O)c1 (racemic) [Example 207, (3aSR,10RS)-6-Ethoxy-10-(3-hydroxy-phenyl)-3a-methyl-2-(3-morpholin-4-yl-propyl)-3a,4,9,10-tetrahydro-2,9,10a-triaza-cyclopenta[b]fluorene-1,3-dione] | 0.0398 to 0.251
19 | CCOc1ccc2[nH]c3c(c2c1)C[C@@]1(C)C(=O)N(CCCN2CC=CCC2)C(=O)N1[C@@H]3c1cccc(O)c1 (racemic) [Example 208, (3aSR,10RS)-2-[3-(3,6-Dihydro-2H-pyridin-1-yl)-propyl]-6-ethoxy-10-(3-hydroyx-phenyl)-3a-methyl-3a,4,9,10-tetrahydro-2,9,10a-triaza-cyclopenta[b]fluorene-1,3-dione] | 0.0398 to 0.251
